Laboratory results as given in EPA's ToxRefDB 2.

How the values were obtained:
rat [1] = details: Prenatal developmental toxicity study, sprague dawley, Oral, Gavage/Intubation, dose end: 15 GD
dog [2] = details: Subchronic oral toxicity in nonrodent, beagle, Capsule, dose end: 90 day, group: systemic
rabbit [3] = details: Prenatal developmental toxicity study, new zealand white, Oral, Gavage/Intubation, dose end: 18 GD
dog [4] = details: Subchronic oral toxicity in nonrodent, beagle, Capsule, dose end: 90 day, group: systemic, systemic / pathology microscopic / liver / [other] + systemic / pathology microscopic / liver / hypertrophy + systemic / pathology …
rat [5] = details: Subchronic oral toxicity in rodents, sprague dawley, Gavage/Intubation, dose end: 90 day, group: systemic, systemic / organ weight / liver / absolute + systemic / organ weight / liver / relative to body weight + systemic / pathology microscopic / …
rat [6] = details: Multigenerational reproductive toxicity study, sprague dawley, Oral, Feed, dose end: 3 generation
rat [7] = details: Multigenerational reproductive toxicity study, sprague dawley, Oral, Feed, dose end: 2 generation
rat [8] = details: Multigenerational reproductive toxicity study, sprague dawley, Oral, Feed, dose end: 3 generation; remark: listed apart in the source
rat [9] = details: Subchronic oral toxicity in rodents, other, Feed, dose end: 17 week, group: systemic
rat [10] = details: Sub-acute repeat dose toxicity, Sprague Dawley, Oral, Gavage/Intubation, dose end: 28 day
mouse [11] = details: Carcinogenicity, cd1, Oral, Feed, dose end: 78 week
rat [12] = details: Multigenerational reproductive toxicity study, other, Oral, Feed, dose end: 2 generation
rat [13] = details: Combined chronic toxicity/carcinogenicity, sprague dawley, Oral, Feed, dose end: 24 month
rat [14] = details: Subchronic oral toxicity in rodents, sprague dawley, Feed, dose end: 13 week
rabbit [15] = details: Prenatal developmental toxicity study, new zealand white, Oral, Gavage/Intubation, dose end: 19 GD
mouse [16] = details: Subchronic oral toxicity in rodents, cd1, Feed, dose end: 90 day, group: cholinesterase
dog [17] = details: Chronic toxicity, beagle, Oral, Feed, dose end: 52 week, group: cholinesterase
dog [18] = details: Subchronic oral toxicity in nonrodent, beagle, Feed, dose end: 13 week
[19] = group: developmental, systemic / in life observation / body weight / fetal weight
[20] = group: maternal, systemic / in life observation / clinical signs / respiration (rales) + systemic / in life observation / clinical signs / salivation + …
[21] = systemic / pathology microscopic / liver / cytoplasmic alteration + systemic / pathology microscopic / liver / vacuolization
[22] = systemic / pathology microscopic / liver / cytoplasmic alteration + systemic / pathology microscopic / liver / vacuolization + systemic / …
[23] = group: developmental, developmental / developmental malformation / bone / misshapen
[24] = group: maternal, reproductive / reproductive performance / postimplantation loss / postimplantation loss + systemic / in life observation / body weight / …
[25] = group: offspring, developmental / developmental landmark / vaginal opening / vaginal opening + systemic / in life observation / body weight / offspring (pup) …
[26] = group: parental, systemic / in life observation / body weight / body weight + systemic / organ weight / kidney / relative to body weight + systemic / organ …
[27] = group: parental, systemic / pathology microscopic / kidney / mineralization + systemic / pathology microscopic / kidney / cyst + systemic / pathology …
[28] = group: reproductive, reproductive / offspring survival early / litter size / litter size + reproductive / reproductive performance / estrous cycle / length + …
[29] = group: reproductive, reproductive / reproductive performance / gestational length / gestational length
[30] = group: offspring, systemic / hematology / leukocyte (wbc) count differential / leukocyte (wbc) + systemic / hematology / monocytes / monocytes
[31] = group: offspring, systemic / hematology / leukocyte (wbc) count differential / leukocyte (wbc) + systemic / in life observation / body weight / offspring (pup…
[32] = group: parental, systemic / hematology / leukocyte (wbc) count differential / leukocyte (wbc) + systemic / in life observation / body weight / body weight
[33] = group: offspring, developmental / developmental landmark / preputial separation / preputial separation + systemic / in life observation / body weight / …
[34] = group: offspring, systemic / in life observation / food consumption / food consumption + systemic / pathology microscopic / kidney / degeneration
[35] = group: parental, systemic / in life observation / food consumption / food consumption + systemic / organ weight / kidney / relative to body weight
[36] = group: parental, systemic / pathology gross / sperm measure / sperm morphology
[37] = group: reproductive, reproductive / offspring survival early / live fetuses / live fetuses
[38] = systemic / in life observation / body weight / body weight gain + systemic / in life observation / food consumption / food consumption + …
[39] = group: maternal, reproductive / reproductive performance / estrous cycle / abnormal
[40] = group: systemic, systemic / clinical chemistry / glucose / glucose + systemic / clinical chemistry / luteinizing hormone (lh) / luteinizing hormone (lh) + …
[41] = group: cholinesterase, cholinesterase / cholinesterase / cholinesterase / plasma cholinesterase (che)
[42] = group: cholinesterase, cholinesterase / cholinesterase / cholinesterase / plasma cholinesterase (che) + cholinesterase / cholinesterase / cholinesterase / brain …
[43] = group: systemic, systemic / in life observation / body weight / body weight gain + systemic / in life observation / clinical signs / pneumonia + systemic / …
[44] = group: cholinesterase, cholinesterase / cholinesterase / cholinesterase / erythrocyte cholinesterase (che) + cholinesterase / cholinesterase / cholinesterase / …
[45] = group: offspring, systemic / in life observation / body weight / offspring (pup) weight
[46] = group: parental, systemic / in life observation / body weight / body weight + systemic / in life observation / clinical signs / abnormal feces + systemic / …
[47] = group: systemic, systemic / in life observation / body weight / body weight + systemic / in life observation / body weight / body weight gain + systemic / in…
[48] = group: systemic, systemic / in life observation / body weight / body weight + systemic / in life observation / food consumption / food consumption + systemic…
[49] = group: maternal, systemic / in life observation / body weight / body weight gain + systemic / in life observation / clinical signs / defecation + systemic / …
[50] = cholinesterase / cholinesterase / cholinesterase / plasma cholinesterase (che) + cholinesterase / cholinesterase / cholinesterase / brain …
[51] = cholinesterase / cholinesterase / cholinesterase / brain cholinesterase (che)
[52] = cholinesterase / cholinesterase / cholinesterase / brain cholinesterase (che) + cholinesterase / cholinesterase / cholinesterase / …
[53] = group: systemic, systemic / clinical chemistry / protein / protein + systemic / in life observation / clinical signs / emaciation + systemic / in life …

## CCCCCC(C)(CC)C(=O)NC (configuration not stated) [N-Methylneodecanamide]
Rat [1]; [19]
  LEL: 400 mg/kg/day
  LOAEL: 400 mg/kg/day
  NEL: 125 mg/kg/day
  NOAEL: 125 mg/kg/day
Rat [1]; [20]
  LEL: 125 mg/kg/day
  LOAEL: 125 mg/kg/day
  NEL: 40 mg/kg/day
  NOAEL: 40 mg/kg/day
Dog [2]; [21]
  LOAEL: 13.5 mg/kg/day
  NOAEL: < 13.5 mg/kg/day
Dog [2]; [22]
  LEL: 13.5 mg/kg/day
  NEL: < 13.5 mg/kg/day
Rabbit [3]; [23]
  LEL: 200 mg/kg/day
  LOAEL: 200 mg/kg/day
  NEL: 100 mg/kg/day
  NOAEL: 100 mg/kg/day
Rabbit [3]; [24]
  LEL: 200 mg/kg/day
  LOAEL: 200 mg/kg/day
  NEL: 100 mg/kg/day
  NOAEL: 100 mg/kg/day
Dog [4]
  LEL: 4.52 mg/kg/day
  LOAEL: 4.52 mg/kg/day
  NEL: 1.35 mg/kg/day
  NOAEL: 1.35 mg/kg/day
Rat [5]
  LEL: 30 mg/kg/day
  LOAEL: 30 mg/kg/day
  NEL: 3 mg/kg/day
  NOAEL: 3 mg/kg/day

## CC(C)CCCCCCc1ccc(O)cc1 [4-Nonylphenol, branched]
Rat [6]; group: offspring, developmental / developmental landmark / vaginal opening / vaginal opening
  NEL: 10 mg/kg/day
Rat [6]; [25]
  LEL: 32.5 mg/kg/day
  LOAEL: > 100 mg/kg/day
  NOAEL: ≥ 100 mg/kg/day
Rat [6]; [26]
  LOAEL: > 100 mg/kg/day
  NOAEL: ≥ 100 mg/kg/day
Rat [6]; [27]
  LEL: 10 mg/kg/day
  NEL: < 10 mg/kg/day
Rat [6]; [28]
  LOAEL: > 100 mg/kg/day
  NOAEL: ≥ 100 mg/kg/day
Rat [6]; [29]
  LEL: 10 mg/kg/day
  NEL: < 10 mg/kg/day
Rat [7]; [30]
  LEL: 1.25 mg/kg/day
  NEL: < 1.25 mg/kg/day
Rat [7]; [31]
  LOAEL: > 100 mg/kg/day
  NOAEL: ≥ 100 mg/kg/day
Rat [7]; [32]
  LEL: 100 mg/kg/day
  LOAEL: > 100 mg/kg/day
  NEL: 25 mg/kg/day
  NOAEL: ≥ 100 mg/kg/day
Rat [8]; [33]
  LOAEL: > 171 mg/kg/day
  NOAEL: ≥ 171 mg/kg/day
Rat [8]; [34]
  LEL: 18 mg/kg/day
  NEL: < 18 mg/kg/day
Rat [8]; [35]
  LOAEL: > 122 mg/kg/day
  NOAEL: ≥ 122 mg/kg/day
Rat [8]; [36]
  LEL: 18 mg/kg/day
  NEL: < 18 mg/kg/day
Rat [8]; [37]
  LEL: 171 mg/kg/day
  LOAEL: > 171 mg/kg/day
  NEL: 53 mg/kg/day
  NOAEL: ≥ 171 mg/kg/day
Rat [9]; systemic / in life observation / body weight / body weight
  LEL: 50 mg/kg/day
Rat [9]; systemic / in life observation / body weight / body weight + systemic / in life observation / body weight / body weight gain + systemic / …
  NEL: 15 mg/kg/day
Rat [9]; [38]
  LOAEL: > 150 mg/kg/day
  NOAEL: ≥ 150 mg/kg/day
Rat [10]; [39]
  LEL: 250 mg/kg/day
  LOAEL: > 250 mg/kg/day
  NEL: 50 mg/kg/day
  NOAEL: ≥ 250 mg/kg/day
Rat [10]; [40]
  LEL: 50 mg/kg/day
  LOAEL: > 250 mg/kg/day
  NEL: 10 mg/kg/day
  NOAEL: ≥ 250 mg/kg/day

## CCOC(=O)CSc1nc(C(C)(C)C)nn1C(=O)N(C)C [Triazamate]
Mouse [11]; [41]
  LEL: 6.7 mg/kg/day
  LOAEL: 6.7 mg/kg/day
Mouse [11]; [42]
  NEL: 0.13 mg/kg/day
  NOAEL: 0.13 mg/kg/day
Mouse [11]; group: systemic, systemic / in life observation / body weight / body weight gain + systemic / in life observation / clinical signs / pneumonia
  LOAEL: 210 mg/kg/day
Mouse [11]; [43]
  LEL: 210 mg/kg/day
  NEL: 6.7 mg/kg/day
  NOAEL: 6.7 mg/kg/day
Rat [12]; [44]
  LEL: 17 mg/kg/day
  LOAEL: 17 mg/kg/day
  NEL: 0.7 mg/kg/day
  NOAEL: 0.7 mg/kg/day
Rat [12]; [45]
  LEL: 101 mg/kg/day
  LOAEL: 101 mg/kg/day
  NEL: 17 mg/kg/day
  NOAEL: 17 mg/kg/day
Rat [12]; [46]
  LEL: 101 mg/kg/day
  LOAEL: > 101 mg/kg/day
  NEL: 17 mg/kg/day
  NOAEL: ≥ 101 mg/kg/day
Rat [13]; [44]
  LEL: 11.5 mg/kg/day
  LOAEL: 11.5 mg/kg/day
  NEL: 0.45 mg/kg/day
  NOAEL: 0.45 mg/kg/day
Rat [13]; [47]
  LEL: 59.2 mg/kg/day
  LOAEL: > 59.2 mg/kg/day
  NEL: 11.5 mg/kg/day
  NOAEL: ≥ 59.2 mg/kg/day
Rat [14]; [41]
  LEL: 31 mg/kg/day
  LOAEL: 31 mg/kg/day
Rat [14]; [42]
  NEL: 3 mg/kg/day
  NOAEL: 3 mg/kg/day
Rat [14]; group: systemic, systemic / in life observation / body weight / body weight + systemic / in life observation / food consumption / food consumption
  LOAEL: 93 mg/kg/day
Rat [14]; [48]
  LEL: 93 mg/kg/day
  NEL: 31 mg/kg/day
  NOAEL: 31 mg/kg/day
Rabbit [15]; [19]
  LEL: 0.5 mg/kg/day
  LOAEL: > 10 mg/kg/day
  NEL: 0.05 mg/kg/day
  NOAEL: ≥ 10 mg/kg/day
Rabbit [15]; [49]
  LEL: 0.5 mg/kg/day
  LOAEL: 0.5 mg/kg/day
  NEL: 0.05 mg/kg/day
  NOAEL: 0.05 mg/kg/day
Mouse [16]; cholinesterase / cholinesterase / cholinesterase / plasma cholinesterase (che)
  LOAEL: 4.55 mg/kg/day
Mouse [16]; [50]
  NEL: 0.336 mg/kg/day
  NOAEL: 0.336 mg/kg/day
Mouse [16]; cholinesterase / cholinesterase / cholinesterase / plasma cholinesterase (che) + cholinesterase / cholinesterase / cholinesterase / …
  LEL: 4.55 mg/kg/day
Dog [17]; [51]
  LEL: 0.0232 mg/kg/day
  LOAEL: 0.0232 mg/kg/day
Dog [17]; [52]
  NEL: 0.0172 mg/kg/day
  NOAEL: 0.0172 mg/kg/day
Dog [18]; [41]
  LEL: 0.03 mg/kg/day
  LOAEL: 0.03 mg/kg/day
  NEL: < 0.03 mg/kg/day
  NOAEL: < 0.03 mg/kg/day
Dog [18]; [53]
  LOAEL: 3.11 mg/kg/day
  NOAEL: 0.31 mg/kg/day
Dog [18]; group: systemic, systemic / in life observation / clinical signs / distended abdomens + systemic / in life observation / clinical signs / vomitting + …
  NEL: 0.03 mg/kg/day
Dog [18]; group: systemic, systemic / in life observation / clinical signs / vomitting
  LEL: 0.31 mg/kg/day
